# From US20040224917A1, “Compositions and methods for combination antiviral therapy” (GILEAD SCIENCES, INC., priority 2003, published 2004)
# Structures can show the parent of a compound that is named as a salt.
# Experiments:
# HIV replication = settings: in combination with PMPA, d4T, ddC, nelfinavir, ritonavir, saquinavir; cited from earlier work
# HIV-1 = settings: in combination with recombinant soluble CD4 castanospermine and recombinant interferon-α; cited from earlier work
# [1] = in tablets, six months at 40° C./75% RH, packaged and stored with desiccant
# [2] = each dose regimen greater or equal to 200 mg, two weeks, monotherapy
smiles,measurement,setting,value
CC(C)(C)C(=O)OCOP(=O)(COCCn1cnc2c(N)ncnc21)OCOC(=O)C(C)(C)C [Adefovir dipivoxil],synergy of inhibition of HIV replication,HIV replication,minor to moderate synergistic inhibition
"Cc1cn([C@H]2C[C@H](N=[N+]=[N-])[C@@H](CO)O2)c(=O)[nH]c1=O [AZT, 3′-azido, 3′-deoxythymidine]",synergy of antiviral activity in vitro,HIV-1,synergistic antiviral activity
"Nc1nc(=O)n([C@@H]2CS[C@H](CO)O2)cc1F (single isomer, unassigned) [Emtricitabine]",viral suppression,HIV; [2],≥ 98%
same,viral suppression (log 10),HIV; [2],≥ 1.75 log 10
same,"reduction of viral load, average",HIV; once-a-day dose of 200 mg,99%
same,"reduction of viral load, average (log 10)",HIV; once-a-day dose of 200 mg,1.92 log 10
"CC(C)OC(=O)OCOP(=O)(CO[C@H](C)Cn1cnc2c(N)ncnc21)OCOC(=O)OC(C)C [Tenofovir disoproxil fumarate, 9-[(R)-2-[[bis[[(isopropoxycarbonyl)oxy]methoxy]phosphinyl]methoxy]propyl]adenine fumarate (1:1)]",loss in % label strength (significant defined as ≧5% degradation),[1],No significant loss
